# Values joined by “and” are separate entries in the source; they are usually repeats but may differ in a detail not shown here. Equal entries are not always repeated.
# Columns and labels:
# C. parvum oocysts [1] = test: In vitro C. parvum infectivity in Madin Darby Bovine Kidney cells (fluorescent antibody count of infected cells); type: cell-based, Cryptosporidium parvum; details: MDBK cells, 46 hours of infection, means of 12 high powered fields
# Description: Activity of polyfensin compounds for Cryptosporidium parvum in vitro. Combination therapy of Polymer B with paromomycin Madin Darby Bovine Kidney cells were infected with C. parvum oocysts in the presence of media alone, paromomycin (2 and 0.25 mg/ml), Polymer B (0.01 or 0.001 mg/ml) or Polymer B (0.01 or 0.001 mg/ml) plus paromomycin at 0.25 mg/ml. After 4 hours of treatment, polymer was removed and replaced with media. After 46 hours of infection the monolayers were fixed, stained with fluorescent antibodies to cryptosporidium, and the numbers of infected cells were enumerated. Parasite numbers represent the means of 12 high powered fields, and numbers of parasites were normalized relative to treatment with media alone (arbitrarily set at 100). […] In vitro Combination therapy of Polymer A with paromomycin. Madin Darby Bovine kidney cells were infected with C. parvum oocysts in the presence of media alone, paromomycin (2 and 0.25 mg/ml), Polymer A (0.01 or 0.001 mg/ml) or Polymer A (0.0 1 or 0.00 1 mg/ml plus paromomycin at 0.25 mg/ml). After 4 hours of treatment, polymer was removed and replaced with media. After 46 hours of infection the monolayers were fixed, stained with fluorescent antibodies to cryptosporidium, and the numbers of infected cells were enumerated. Parasite numbers represent the means of 12 high powered fields, and numbers of parasites were normalized relative to treatment with media alone (arbitrarily set at 100).
# C. parvum oocysts [2] = test: In vivo oocyst shedding in C. parvum infected SCID mice; details: SCID mice infected day 0; prm alone 500 mg/kg/day by oral gavage from day 7; fecal smears, acid fast staining; water alone 25
# Description: In vivo activity of selected polymers in combination with parmomycin
# Severe combined immunodeficient mice (SCID) were infected with C. parvum oocysts on day 0. On day 7, mice were treated with water or Polymers A, E and D by delivery in maple flavored drinking water at 2000 mg/kg/day. For each treatment, mice additionally received water or 500 mg/kg/day paromomycin (prm) by oral gavage. Oocyst shedding was quantitated in fecal smears by acid fast staining. Average numbers of oocysts shed were as follows: Treatment with water alone, 25; treatment with prm alone 12. Treatment with polymers alone gave modest changes in oocysts shedding and ranged from ˜20% reduction in oocysts; to a ˜20% increase in shedding, relative to treatment with water alone. Combination of polymers with prm gave reductions in oocysts in the range of 50-90% relative to treatment with prm alone.
compound,measurement,setting,value
NC[C@@H]1O[C@H](O[C@H]2[C@@H](O)[C@H](O[C@@H]3[C@@H](O)[C@H](N)C[C@H](N)[C@H]3O[C@H]3O[C@H](CO)[C@@H](O)[C@H](O)[C@H]3N)O[C@@H]2CO)[C@H](N)[C@@H](O)[C@@H]1O [paromomycin],parasite numbers normalized relative to treatment with media alone (arbitrarily set at 100),C. parvum oocysts [1]; paromomycin alone at 0.25 mg/ml,61.5 and 73.0
same,parasite numbers normalized relative to treatment with media alone (arbitrarily set at 100),C. parvum oocysts [1]; paromomycin alone at 2 mg/ml,15.3
same,parasite numbers normalized relative to treatment with media alone (arbitrarily set at 100),"C. parvum oocysts [1]; paromomycin alone at 2 mg/ml, listed as parmomycin",15.4
same,Average numbers of oocysts shed,C. parvum oocysts [2],12

# From patent publication US6482402B1, “Antimicrobial compositions and methods” (GelTex Pharmaceuticals, Inc., priority 1999, dated 2002)
